Measured values published in patent US20110027354A1, “ANTI-PA[…]” (priority 2008, published 2011).
Entries after “also recorded” stand apart in the source; their conditions may differ.

What was measured:
[1] = test system: F4/80, a marker of reactive microglia; experiment: F4/80 expression (western blot); assay type: in vivo, mice; settings: striatum; pre-treatment; vs. MPTP alone
Protocol: The western blot assays were performed as described previously (thong et al., 1997). Tissues were homogenized in lysis buffer, containing 200 mM Tris HCl (pH 6.8), 1% SDS, 5 mM ethylene glycol tetraacetic acid, 5 mM ethylenediaminetetraacetic acid, 10% glycerol, 1× phosphatase inhibitor cocktail I, 1× protease inhibitor cocktail. The supernatant fraction was subsequently centrifuged at 30,000×g for 30 min. The resulting pellet was resuspended in the sample buffer. Proteins (20-50 ug/lane) were separated by 6%, 8%, 10% or 15% sodium dodecyl sulfate-polyacrylamide gel electrophoresis and transferred onto the nitrocellulose membranes. Following transfer, the nitrocellulose membranes were preincubated with 5% non-fat milk and incubated overnight at 4° C. with anti-β-actin (Sigma, 1:50000), anti-TH (Chemicon, 1:5000), anti-TH phosphoser19 (Chemicon, 1:5000), anti-TH phosphoser31 (Chemicon, 1:500), anti-TH phosphoser40 (Chemicon, 1:500), anti-F 4/80 (Serotec, 1:500), anti-BDNF (Chemicon, 1:500), anti-GDNF (Santa-Cruz, 1:250), anti-Akt (Cell signaling, 1:1000), anti-phospho Akt ser 473 (Cell signaling, 1:1000), anti-PI3K (Cell signaling, 1:1000), anti-phospho PI3K (Cell signaling, 1:500) and anti-α-synuclein (BD Transduction, 1:500) antibody. […]

[2] = test system: tyrosine hydroxylase (TH); experiment: TH-immunoreactivity by immunocytochemistry; assay type: in vivo, mice; settings: for effect on MPTP-induced decrease of TH-immunoreactivity (TH-IR): immunocytochemistry (ICC), vs. MPTP alone; for TH-immunoreactivity: drug alone (no MPTP)
Protocol: Animals were sacrified at 1 day after MPTP-treatment. They were anesthetized with 60% urethane and perfused transcardially with 200 ml of 50 mM phosphate buffered saline (PBS), followed by 50 ml of paraformaldehyde in PBS. The brain were fixed at 4° C. for 24 h in the same fixative and then cryoprotected in 30% sucrose. The brains were sectioned on a horizontal sliding microstome into 35 μm transverse free-floating sections.
The immunocytochemistry was performed as described previously (Kim et al., 2000a; Kim et al., 2000b). Briefly, prior to incubation with the primary antibodies, sections were preincubated with 0.3% hydrogen peroxide in PBS for 30 min (to block endogenous peroxidase activity), then in PBS containing 0.4% Triton X-100 for 20 min and 1% no: mal serum for 20 min. After a 48 h incubation with the primary antibody at 4° C., sections were incubated with the secondary biotinylated antisera (1:1000 dilution; Vector, Brulingame, Calif.) for 1 h, washed, and immersed in avidin-biotin-peroxidase complex (ABC Elite kit, Vector) for 1 hr. Sections were always washed three times with PBS between each incubation step. 3,3′-Diaminobenzidine (DAB) was used as the chromogen. The quantitative analyses were performed using a computer-based image analysis system (Optimas version 6.2; Neurolucida Program) (Kim et al., 1999).

[3] = test system: glial cell line-derived neurotrophic factor (GDNF); experiment: GDNF expression (western blot); assay type: in vivo, mice; settings: striatum; for effect on MPTP-induced reduction of GDNF expression: pre-treatment, vs. MPTP alone
Protocol: The western blot assays were performed as described previously (thong et al., 1997). Tissues were homogenized in lysis buffer, containing 200 mM Tris HCl (pH 6.8), 1% SDS, 5 mM ethylene glycol tetraacetic acid, 5 mM ethylenediaminetetraacetic acid, 10% glycerol, 1× phosphatase inhibitor cocktail I, 1× protease inhibitor cocktail. The supernatant fraction was subsequently centrifuged at 30,000×g for 30 min. The resulting pellet was resuspended in the sample buffer. Proteins (20-50 ug/lane) were separated by 6%, 8%, 10% or 15% sodium dodecyl sulfate-polyacrylamide gel electrophoresis and transferred onto the nitrocellulose membranes. Following transfer, the nitrocellulose membranes were preincubated with 5% non-fat milk and incubated overnight at 4° C. with anti-β-actin (Sigma, 1:50000), anti-TH (Chemicon, 1:5000), anti-TH phosphoser19 (Chemicon, 1:5000), anti-TH phosphoser31 (Chemicon, 1:500), anti-TH phosphoser40 (Chemicon, 1:500), anti-F 4/80 (Serotec, 1:500), anti-BDNF (Chemicon, 1:500), anti-GDNF (Santa-Cruz, 1:250), anti-Akt (Cell signaling, 1:1000), anti-phospho Akt ser 473 (Cell signaling, 1:1000), anti-PI3K (Cell signaling, 1:1000), anti-phospho PI3K (Cell signaling, 1:500) and anti-α-synuclein (BD Transduction, 1:500) antibody. After incubation with primary antibody, membranes were incubated with the secondary anti-rabbit IgG, Horseradish Peroxidase (1:1000 dilution, Amersham) or anti-mouse IgG, Horseradish Peroxidase (1:1000, Sigma), or anti-goat IgG, Horseradish Peroxidase (1:1000, Sigma) for 2 h, washed. Subsequently visualized with the Amersham ECL system (Amersham, Arlington Heights, Ill., USA).

mice = experiment: Locomotor activity after repeated treatment with drug alone; assay type: in vivo; settings: repeated treatment i.p./day×7, selegiline or MPPE 2.5 or 5.0 mg/kg, MA 0.5 or 1.0 mg/kg; for locomotor activities: vs. saline
Protocol: Selegiline or […] was injected (2.5 or 5 mg/kg, i.p.) once a day for 7 consecutive days. Methamphetamine, a positive control, was also administered (0.5 or 1 mg/kg, i.p.) once a day for 7 days.
(§1) Locomotor activity measured for 30 min one day after the last MPTP administration using an automated video-tracking system (Noldus Information Technology, Wagenin, The Netherlands). Eight test boxes (40×40×30 cm high) were operated simultaneously by an IBM computer. Animals were studied individually during locomotion in each test box, where they were adapted for 5 min before starting the experiment. […] The distance traveled in cm by the animals in horizontal locomotor activity was analyzed. Data were collected and analyzed between 09:00 and 17:00 h (Kim et al., 2001).

MPTP-treated mice = experiment: MPTP-induced hypolocomotion (locomotor activity); assay type: in vivo; settings: for effect on MPTP-induced hypolocomotor activity: 2.5 mg/kg/i.p./day×9, vs. MPTP alone
Protocol: as §1

[4] = test system: dopamine (DA), DOPAC and HVA in the striatum; experiment: HPLC analysis of striatal DA, DOPAC and HVA; assay type: in vivo, mice; settings: for effect on MPTP-induced increase of DA turnover rate / effect on MPTP-induced reduction of DOPAC / effect on MPTP-induced reduction of HVA / effect on MPTP-induced reduction of dopamine (DA): 2.5 mg/kg i.p., vs. MPTP alone; for effect on MPTP-induced reduction of dopamine (DA): 2.5 mg/kg; for levels of DA, DOPAC, HVA: drug alone (no MPTP)
Protocol: At 1 day after last MPTP injections mice were killed by cervical dislocation, the brains were removed and placed on an ice-cooled plate. Striatum was dissected and immediately frozen on dry ice and store at −70° C. until extraction. Brain regions obtained from each animal were weighed, ultrasonicated in 10% perchloric acid containing 10 ng/mg of the internal standard dihydroxybenzilamine, and centrifuged at 20,000 g for 10 min. The levels of DA and its metabolites 3,4-dihydroxyphenylacetic acid (DOPAC) and homovanillic acid (HVA) in brain tissue extracts were determined by HPLC coupled with electrochemical detection as described (Ali et al., 1994). Briefly, striatal tissues were sonicated in 0.2 M perchloric acid (20% W/V) containing the internal standard 3,4-dihydroxybenzylamine (10 mg wet tissue/ml) The homogenate was centrifuged and a 20-μl aliquot of the supernatant was injected into the HPLC equipped with a 3-μm C18 column. The mobile phase was comprised of 26 ml of acetonitrile, 21 ml of tetrahydrofuran and 960 ml of 0.15 M monochloroacetic acid (pH 3.0) containing 50 mg/l of EDTA and 200 mg/l of sodium octyl sulfate. The amount of DA, DOPAC and HVA were determined by comparison of peak height ratio of tissue sample with standards, and were expressed in nanograms per gram of wet weight of tissue.

Compound	effect on MPTP-induced increase in F4/80-immunoreactivity [1]	effect on MPTP-induced decrease of TH-immunoreactivity (TH-IR) ([2]; SN)	TH-immunoreactivity [2]	attenuation of TH-IR decrease compared with selegiline ([2]; striatum and SN, ICC, vs. selegiline+MPTP)	effect on MPTP-induced decrease of TH-immunoreactivity (TH-IR) ([2]; striatum)	effect on MPTP-induced reduction of GDNF expression [3]	enhancement of GDNF expression compared with selegiline ([3]; vs. selegiline+MPTP)	locomotor patterns (mice)	locomotor activities (mice)	attenuation of MPTP-induced hypolocomotor activity compared with selegiline (MPTP-treated mice; 2.5 mg/kg i.p., vs. selegiline+MPTP)	effect on MPTP-induced hypolocomotor activity (MPTP-treated mice)	effect on MPTP-induced increase of DA turnover rate [4]	effect on MPTP-induced reduction of DOPAC [4]	effect on MPTP-induced reduction of HVA [4]	effect on MPTP-induced reduction of dopamine (DA) [4]	levels of DA, DOPAC, HVA [4]	attenuation for DA level compared with selegiline ([4]; vs. selegiline+MPTP)	attenuation of DA turnover rate increase compared with selegiline ([4]; vs. selegiline+MPTP)	locomotor patterns (mice; listed as Sel)
C#CCN(C)CCc1ccccc1 [MPPE, N-methyl-N-propynyl-2-phenylethylamine]	significantly blocked increase in F4/80-immunoreactivity induced by MPTP; also recorded: attenuated	significantly attenuated	did not show any significant effect	more evident	attenuated	significantly attenuated	more effective	comparable to those by saline; also recorded: did not show these behavioural side effects	did not significantly alter locomotor activities	more pronounced in the MPPE-pretreated mice than selegiline-pretreated case	significantly attenuated	attenuated	attenuated	attenuated	significantly attenuated	did not show any significant effect	more pronounced in the MPPE-treated mice	more evident than by selegiline	
C#CCN(C)[C@H](C)Cc1ccccc1 [selegiline, reference compound]	significantly blocked increase in F4/80-immunoreactivity induced by MPTP; also recorded: attenuated	significantly attenuated	did not show any significant effect		attenuated	significantly attenuated		circling locomotor patterns	significantly increased		significantly attenuated	attenuated	attenuated	attenuated	significantly attenuated	did not show any significant effect			typical circling locomotor patterns
